Data on seven substances can be found in patent US8754058B2, “Inhibitors of FAM3B gene, inhibitor compositions, inhibiting methods and applications of inhibitors in preparing pharmaceuticals” (Suzhou Ribo Life Science Company, Ltd., priority 2009, dated 2014).

Entries after “also recorded” stand apart in the source; their conditions may differ. d = 2'-deoxy (DNA); r = 2'-OH (RNA)

The test system of data set [1] is FAM3B protein in HepG2 cells. The experiment in a line: Western blot of FAM3B protein in transfected HepG2 cells. In kind it is cell-based, human. To be noted: 48 hours after transfection, Western blot grayscale, FIG. 5. On the procedure: The cells are digested with 0.25% trypsin 24 hours before the transfection, then the cells are counted and inoculated into the 24 well plate in a density of 1×10^5 cells/ml, and 1000 μl cells are added in each well. Lipofectamine™ 2000 liposome from Invitrogen Company is used for the transfection with the small interfering nucleotides obtained from example 1 (FAM3B-1 to FAM3B-32) respectively, and unrelated small interfering nucleotide (the sense strand: 5-[…]-3 (SEQ ID NO: 78); the antisense strand: 5-ACGUGACACGUUC GGAGAATT-3 (SEQ ID NO: 79)) is used as the negative control.
(4) Inhibition on FAM3B Protein Expression by Using Small Interfering Nucleotides
After the cells transfected according to step (2) in example 6 are cultured for 48 hours, the cells are disrupted by using the protein lysis buffer and the total proteins are extracted, and the protein sample is examined according to the standard procedure for Western blot. For the detection of FAM3B protein, the membrane is incubated with the rabbit derived anti-FAM3B antibody (R&D systems), the secondary antibody is the peroxidase labelled horse anti-rabbit antibody (Zhongshan Jinqiao); the antibody for detecting the internal reference β-actin: the primary antibody is mouse derived anti-β-actin antibody, and the secondary antibody is the peroxidase labelled goat anti-mouse antibody, and the results are subjected to grayscale comparison shown as FIG. 5.
For orientation: Immunoblotting shows a protein as a band on a membrane.

Data set [2] relates to hyperlipemia model of mice. Nature of the data set: TG and cholesterol levels in hepatic tissues of hyperlipemia model mice. In kind it is in vivo. To be noted: tail vein, daily for 7 days, FIG. 8. The source says:
(§1) The hyperlipemia model of mice is induced by using high-fat feeds, the C57BL/6J mice are purchased from Vital River, male, three weeks old. The formula for the high fat feeds is as below: basic feeds 83.5%, […], 1% cholesterol, 10% pork fat, 0.2% propylthiouracil, 0.3% sodium deoxycholate, 5% sucrose, and it is produced by the experimental animal center of Academy of Military Medical Sciences. The hyperlipemia model of mice is obtained after induction for 3-4 weeks.
After the small interfering nucleotide of FAM3B gene FAM3B-46 is labelled with cholesterol or coated with liposome, it is injected into the hyperlipemia model of mice via their tail veins. The injection is carried out for continuous 7 days with one injection each day and the samples are collected after 7 days. The standard dosages for injection are 2.5 mg, 5 mg and 10 mg for every kilogram of body weight. Other dosages such as 0.1 mg-50 mg small interfering nucleotide for every kilogram of body weight are also under test. The products from Zhongsheng Beikong Biological Technological Co., Ltd. are used as the kit for detecting triglyceride (TG) and cholesterol, and they are determined on a SABA/18 automated biochemical analyzer. The detections are carried out with reference to the instruction for the kits of Biosino Bio-Technology and Science Incorporation. The animals are subjected to fast dieting 16 hours before blood sample collection.

Data set [3] relates to hyperlipemia model of mice. The experiment in a line: TG and cholesterol levels in blood of hyperlipemia model mice. In kind it is in vivo. To be noted: tail vein, daily for 7 days, FIG. 9.
Source text: as §1
(§2) After the small interfering nucleotide of FAM3B gene FAM3B-46 is labelled with cholesterol or coated with liposome, it is injected into the hyperlipemia model of mice via their tail veins. The injection is carried out for continuous 7 days with one injection each day and the samples are collected after 7 days. The standard dosages for injection are 2.5 mg, 5 mg and 10 mg for every kilogram of body weight. Other dosages such as 0.1 mg-50 mg small interfering nucleotide for every kilogram of body weight are also under test.

Data set [4] deals with FAM3B protein in intestine. Nature of the data set: FAM3B protein expression in intestine of hyperlipemia model mice. In kind it is in vivo. To be noted: tail vein, daily for 7 days.
Source text: as §1, §2

Data set [5] relates to FAM3B protein in hepatic tissues. Nature of the data set: FAM3B protein expression in hepatic tissues of hyperlipemia model mice. To be noted: tail vein, daily for 7 days. The format is in vivo.
Source text: as §1, §2

A further data set deals with FAM3B mRNA in intestine. Nature of the data set: FAM3B mRNA expression in intestine of hyperlipemia model mice. The format is in vivo. The conditions noted are these: tail vein, daily for 7 days, FIG. 7.
Source text: as §1, §2

Another data set has as its system HepG2 cells. The experiment in a line: inhibition of fat-emulsion-induced lipid accumulation in HepG2 cells, oil red O staining. The conditions noted are these: 20% fat emulsion induction 48 hours, 50 nM, 48 hours after transfection, FIG. 6. In kind it is cell-based, human. On the procedure: (1) Induction of Lipid Accumulation in HepG2 Cells
The cells are inoculated in the 24 well culture plate in a density of 2×10^4 cells/1 mL, 20% fat emulsion for medical use is added in each well in a dosage of 2 ml/L, and the cells are cultured for 48 hours. The culture is stopped and oil red O staining is carried out to observe the lipids in the cells. The operations are as followed: the cells are rinsed with PBS for three times and 5 minutes each; then the cells are fixed with 50% isopropanol for 1 min and stained with oil red O for 10 min; the cells are rinsed with distilled water for three times and 1 min each; the cells are observed and photographed under a microscope. Normally, the cells might be not stained or only slightly stained, large amount of lipids accumulated in the cells after induction with fat emulsion for medical use, and red lipid droplets can be detected under the microscope after the staining with oil red O.
(2) Determination of the Inhibitory Effects on Lipid Accumulation in HepG2 Cells […]

In data set [6] the test system is hepatic adipose infiltration model mice. The experiment in a line: hepatic adipose infiltration model in mice (MCD diet), oil red O and HE staining of hepatic sections. In kind it is in vivo. To be noted: tail i.v. once every three days, 15 days, 2.5, 5 and 10 mg/kg, FIG. 2. The source says:
(1) Induction on hepatic adipose infiltration model in mice. 10 male C57BL/6J mice (purchased from the department of experimental animals, Medical Division of Peking University) with age of 8-10 weeks are divided into two groups (normal diet and MCD diet). MCD (high-fat, methionine-choline deficient) diet is a common program for the investigations on non-alcoholic fatty liver in this field. The hepatic adipose infiltration model in mice is obtained after treatments for 10-16 weeks. (2) Treatments on Hepatic Adipose Infiltration Using Small Interfering Nucleotides
1.2 mg (0.09 μmol) small interfering nucleotides from FAM3B-43 to FAM3B-46 with modification in the example 3 is dissolved in 1.5 ml RNAase free sterilized physiological saline to prepare a solution comprising 60 μmol/L small interfering nucleotides, and it is mixed in certain proportion with the carrier material. The injection is obtained after the mixed small interfering nucleotide is added into 5 ml RNAase free sterile physiological saline (the concentration of the small interfering nucleotide is 0.25 mg/ml). […]

[7] abbreviates: standard dosages and 10 mg/kilogram body weight.
Setting [8] is: standard dosages 2.5, 5, 10 mg/kg.

Regarding “FAM3B-17: siRNA, human FAM3B; sense 5′-GGUCUAGCUGGGUAUUUAUdTdT-3′; antisense 5′-AUAAAUACCCAGCUAGACCdTdT-3′ (sense GGUCUAGCUGGGUAUUUAUTT; antisense AUAAAUACCCAGCUAGACCTT; sugars from the 5' end r19 d2, backbone not given here)”, the “inhibition of FAM3B protein expression in HepG2 cells” value in data set [1] is given as “significantly inhibit”.
Same read-out and setting: the value for “FAM3B-24: siRNA, human FAM3B; sense 5′-GAGUAAAUGUGUUCUGUAUdTdT-3′; antisense 5′-AUACAGAACACAUUUACUCdTdT-3′ (sense GAGUAAAUGUGUUCUGUAUTT; antisense AUACAGAACACAUUUACUCTT; sugars from the 5' end r19 d2, backbone not given here)” was “significantly inhibit”.
For “unrelated small interfering nucleotide: negative control siRNA; sense 5-UUCUCCGAACGUGUCACGUTT-3 (SEQ ID NO: 78); antisense 5-ACGUGACACGUUCGGAGAATT-3 (SEQ ID NO: 79) (chemistry not given here) [reference compound]”, in data set [2], the “reduction of TG level in hepatic tissues” value is on record as “could not significantly reduce” and the “reduction of cholesterol level in hepatic tissues” value is recorded as “could not significantly reduce”. In addition, in data set [3], the “reduction of TG level in blood” value was “could not significantly reduce” and the “reduction of cholesterol level in blood” value is “could not significantly reduce”. For the same substance, in data set [4], the “reduction of FAM3B protein expression in intestine” value is “could not significantly reduce”. Besides, in data set [5], the “reduction of FAM3B protein expression in hepatic tissues” value was “could not significantly reduce”. In the data set with FAM3B mRNA in intestine, the “reduction of FAM3B mRNA expression in intestine” value is “could not significantly reduce”.
For the substance “FAM3B-11: siRNA, human FAM3B; sense 5′-CUCUGGACCGAUGACAAAGdTdT-3′; antisense 5′-CUUUGUCAUCGGUCCAGAGdTdT-3′ (sense CUCUGGACCGAUGACAAAGTT; antisense CUUUGUCAUCGGUCCAGAGTT; sugars from the 5' end r19 d2, backbone not given here)”, in data set [1], the “inhibition of FAM3B protein expression in HepG2 cells” value was “significantly inhibit”.
The same measure, in the same setting: under “FAM3B-15: siRNA, human FAM3B; sense 5′-GCACUUGGAAGUAAAGAAAdTdT-3′; antisense 5′-UUUCUUUACUUCCAAGUGCdTdT-3′ (sense GCACUUGGAAGUAAAGAAATT; antisense UUUCUUUACUUCCAAGUGCTT; sugars from the 5' end r19 d2, backbone not given here)” stands “significantly inhibit”.
As to “FAM3B-20: siRNA, human FAM3B; sense 5′-GCUAAGAACAACAGAUAUUdTdT-3′; antisense 5′-AAUAUCUGUUGUUCUUAGCdTdT-3′ (sense GCUAAGAACAACAGAUAUUTT; antisense AAUAUCUGUUGUUCUUAGCTT; sugars from the 5' end r19 d2, backbone not given here)”, the “inhibition of fatty deposition in HepG2 cells” value in the data set on HepG2 cells is “significantly inhibit fatty deposition”. Moreover, the “inhibition of FAM3B protein expression in HepG2 cells” value in data set [1] is reported as “significantly inhibit”.
Take “FAM3B-46: chemically modified mouse FAM3B siRNA (2′-O-methyl sense with cholesterol, 2′-fluoro antisense); 5-UCAGAAAUCGAGAGAGAAAdTdT; 5-UUUCUCUCUCGAUUUCUGAdTdT (sense UCAGAAAUCGAGAGAGAAATT; antisense UUUCUCUCUCGAUUUCUGATT; Sense 2'-OMe, antisense 2'-F at italic positions, sense cholesterol at terminus, further chemistry not given here)”: in data set [6], the “degree of hepatic adipose infiltration (oil red O and HE staining)” value was “effectively reduce the degree of hepatic adipose infiltration; also recorded: significantly reduced”. For the same substance, the “reduction of TG level in hepatic tissues” value was 20-40% in data set [2] (5 mg and 10 mg/kilogram body weight); “significantly reduce” in data set [2]. The results for the “reduction of cholesterol level in hepatic tissues” value in data set [2] (10 mg/kilogram body weight) and in data set [2] were 15-30% and “significantly reduce”, respectively. The “reduction of TG level in blood” value in data set [3] is “significantly reduce”; in data set [3] (setting [7]), 25-50%. Moreover, the “reduction of cholesterol level in blood” value in data set [3] is given as “significantly reduce”. Moreover, the “reduction of cholesterol level (cholesterol level in blood examined; printed 'in hepatic tissues')” value in data set [3] (setting [7]) is 25-50%. The “reduction of FAM3B protein expression in intestine” value in data set [4] (setting [8]) came to 30%. In addition, in data set [5] (setting [8]), the “reduction of FAM3B protein expression in hepatic tissues” value was found to be 40%. Besides, the “reduction of FAM3B mRNA expression in intestine” value is given as “significantly inhibit” in the data set with FAM3B mRNA in intestine and 45% in the data set with FAM3B mRNA in intestine (setting [8]).
